*1 amine or outer side, *2 acyl side, *3 side chain or, on linkers, in order; H or OH if unused. Where a SMILES comes first, the peptide text is derived from it. Bridges are numbered along the chain shown (N, C = ends). Roman numbers before positions name the chains, in order. [ ]: non-standard residue; d: D form. Actinocin(9to1) = Cc1c2oc3c(C)ccc(C(=O)[*:1])c3nc-2c(C(=O)[*:2])c(N)c1=O; NMeV = CN[C@H](C(=O)O)C(C)C; Sar = CNCC(=O)O

Assay [1] relates to NADH dehydrogenase subunit 4 (ND4). Conditions: cited from earlier work.
Assay [2] deals with ρ^0 (143B/206) and ρ^+ (143B) osteosarcoma cells. In words: Flow cytometric analysis of apoptotic cells (annexin V / propidium iodide). The format is cell-based, human. The conditions noted are these: for proapoptotic effect on ρ^0 or ρ^+ cells: agent alone; for apoptosis induced in ρ^0 cells compared with ρ^+ cells (early apoptotic cells, annexin V positive/propidium iodide negative): 16 hours, 0.5 μM staurosporine, 100 ng/ml anti-Fas antibody or 20 ng/ml TNFα plus 100 ng/ml actinomycin D. Here is the method: (§1) A human osteosarcoma-derived cell line, 143B, containing mtDNA (ρ^+), and its mtDNA-less derivative, 143B/206 (ρ^0), were maintained in Dulbecco's Modified Eagle Medium (DMEM)-high glucose ([…]; GibcoBRL, Life Technologies AB, Sweden) containing 10% fetal bovine serum, and 100 IU/ml penicillin-streptomycin (GibcoBRL, Life Technologies AB, Sweden). The 143B/206 ρ^0 cells were additionally supplemented with 1 mM sodium pyruvate (GibcoBRL, Life Technologies AB, Sweden) and 50 μg/ml uridine (Sigma-Aldrich AB, Sweden) as described [King et al, Science 246:500-503 (1989)]. Cells were grown to sub-confluence.
We stained the cells with annexin V and propidium iodide using the Vybrant apoptosis assay kit 2 (Molecular Probes, Leiden, The Netherlands). Flow cytometric analyses were performed on a Beckton Dickinson flow cytometer (FACScan) and the results were analyzed by using the Cell Quest program (Beckton Dickinson).
For orientation: In flow cytometry, cells or beads pass a laser one at a time.

The test system is the same in assay [3]. In words: Measurement of caspase 3 activity. Conditions: 16 hours; ρ^0 and ρ^+ cells; compared to untreated cells. The format is cell-based, human. Here is the method:
as §1
Caspase 3 activity was measured by the caspase 3 assay kit (Pharmingen, CA, USA). Briefly, a tetrapeptide labeled with the fluorochrome 7-amino-4-methylcoumarin (AMC) was used as a substrate to identify and quantitate caspase 3 activity. AMC is released from the substrate upon cleavage by caspase-3. Free AMC is quantified in cell lysates by ultraviolet (UV) using an excitation wavelength of 365 nm and an emission wavelength of 460 nm. […] Caspase 3 activity was measured on ρ^0 and ρ^+ cells incubated with 0.5 μM staurosporin (n=3), 100 ng/ml human anti-Fas antibody plus 100 ng/ml actinomycin D (n=3), and 20 ng/ml human recombinant tumour necrosis factor α plus 100 ng/ml actinomycin D (n=3) for 16 hours.

In assay [4] the target is T1, human mtDNA light strand promoter (LSP) transcription (Homo sapiens, UniProt O00411+Q00059).
T1 construct: 10xHis (N); 6xHis (C); made in house; host or cells: Sf9 insect cells, recombinant baculovirus (pBacPAK9)
T1 sequence (O00411 42-1230): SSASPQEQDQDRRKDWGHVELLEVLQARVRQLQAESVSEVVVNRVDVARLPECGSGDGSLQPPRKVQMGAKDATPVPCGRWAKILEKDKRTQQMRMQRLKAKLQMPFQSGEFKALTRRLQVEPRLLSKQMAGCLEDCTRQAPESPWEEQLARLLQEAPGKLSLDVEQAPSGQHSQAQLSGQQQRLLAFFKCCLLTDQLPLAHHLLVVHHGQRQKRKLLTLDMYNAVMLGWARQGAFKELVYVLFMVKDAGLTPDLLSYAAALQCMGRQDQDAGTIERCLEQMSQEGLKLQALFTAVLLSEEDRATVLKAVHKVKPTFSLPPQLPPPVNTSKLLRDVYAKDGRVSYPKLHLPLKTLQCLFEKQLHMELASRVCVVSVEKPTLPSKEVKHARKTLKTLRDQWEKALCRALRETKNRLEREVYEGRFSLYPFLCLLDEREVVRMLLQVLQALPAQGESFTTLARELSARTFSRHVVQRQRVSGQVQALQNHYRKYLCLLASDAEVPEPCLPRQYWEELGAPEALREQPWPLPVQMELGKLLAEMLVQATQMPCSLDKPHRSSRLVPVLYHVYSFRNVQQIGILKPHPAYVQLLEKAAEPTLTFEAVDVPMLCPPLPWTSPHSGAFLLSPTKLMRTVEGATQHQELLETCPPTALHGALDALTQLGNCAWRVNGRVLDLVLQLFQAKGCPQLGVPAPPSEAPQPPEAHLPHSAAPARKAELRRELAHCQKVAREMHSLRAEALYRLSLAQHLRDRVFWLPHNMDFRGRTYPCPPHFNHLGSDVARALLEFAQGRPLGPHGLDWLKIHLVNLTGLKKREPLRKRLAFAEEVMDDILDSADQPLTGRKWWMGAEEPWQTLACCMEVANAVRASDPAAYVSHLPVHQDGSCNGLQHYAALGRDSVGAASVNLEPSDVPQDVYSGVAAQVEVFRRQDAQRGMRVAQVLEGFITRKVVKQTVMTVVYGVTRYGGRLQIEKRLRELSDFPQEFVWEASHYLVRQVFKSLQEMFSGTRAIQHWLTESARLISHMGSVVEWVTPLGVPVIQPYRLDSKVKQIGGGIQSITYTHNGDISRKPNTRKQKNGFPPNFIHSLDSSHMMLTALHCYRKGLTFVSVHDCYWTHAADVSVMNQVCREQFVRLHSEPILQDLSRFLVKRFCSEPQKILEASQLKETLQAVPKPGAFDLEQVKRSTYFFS
T1 sequence (Q00059 43-246): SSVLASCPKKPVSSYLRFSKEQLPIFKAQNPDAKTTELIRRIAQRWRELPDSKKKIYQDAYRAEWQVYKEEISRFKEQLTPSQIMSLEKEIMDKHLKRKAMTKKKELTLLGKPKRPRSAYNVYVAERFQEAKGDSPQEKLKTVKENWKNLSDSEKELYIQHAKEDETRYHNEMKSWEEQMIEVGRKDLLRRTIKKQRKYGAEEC
In words: In vitro run off transcription assay with recombinant mtRNAP, TFAM, TFB1M/TFB2M. Type of assay: biochemical. The conditions noted are these: TFAM (2.5 pmol), mtRNAP/TFB1M (400 fmol) or mtRNAP/TFB2M (400 fmol). The source says: Recombinant human mitochondrial RNA polymerase (mtRNAP), TFAM, TFB1M, and TFB2M were expressed in a baculovirus system and purified to homogeneity. The activity of these proteins was studied in vitro by run off transcription assays. The template used was a human mtDNA fragment containing the light strand promoter (LSP) followed by a 200 base pairs long stretch of double-stranded DNA. Neither, mtRNAP, TFAM, TFB1M nor TFB2M did alone initiate transcription from the mtDNA promoter. […] However, specific transcription initiation from LSP was obtained by combining either mtRNAP, TFAM and TFB1M or mtRNAP, TFAM and TFB2M. On the basis of these experiments we conclude that both TFB1M and TFB2M are functional homologues of the previously identified Saccharomyces cerevisiae protein Mtf1.
To investigate the promoter specificity of the transcription reaction, we added a double-stranded oligonucleotide containing only the LSP sequence in a 100-fold surplus to the template DNA. […]
DNA fragments corresponding to base pairs 1-741 (LSP/HSP), 1-477 (LSP) or 499-741 (HSP) of human mtDNA [Anderson et al., Nature 290:457 (1981)] were cloned into pUC18. […] The pellets were dissolved in 10 μl of gel loading buffer (98% formamide, 10 mM EDTA pH 8.0, 0.025% xylene cyanol FF, 0.025% bromophenol blue), heated at 95° C. for 5 min, and analyzed on a 5% denaturing polyacrylamide gel in 1×TBE. […]

Oligomycine: in assay [1], the “cell death in the cell population” value was “increase cell death” and the “differentiation in the surviving population” value (“differentiation” for short) is listed as “induce differentiation”. Consider TNFα, for which the “proapoptotic effect on ρ^0 or ρ^+ cells” value in assay [2] is given as “no proapoptotic effect”. In the case of `CN[C@@H]1C[C@H]2O[C@@](C)([C@@H]1OC)n1c3ccccc3c3c4c(c5c6ccccc6n2c5c31)C(=O)NC4` [STP, staurosporine], the “apoptosis induced in ρ^0 cells compared with ρ^+ cells (early apoptotic cells, annexin V positive/propidium iodide negative)” value in assay [2] is reported as “more STP-induced apoptosis in cells with mtDNA (ρ^+ cells) than in their mtDNA-less derivatives”. Besides, the “induction of caspase 3 activity” value in assay [3] is “significant induction of caspase 3 activity in both ρ^0 and ρ^+ cells”. For the molecule Antimycin A, in assay [1], the “cell death in the cell population” value was “increase cell death” and the “differentiation” value is “induce differentiation”.

Consider `Cc1c2oc3c(C)ccc(C(=O)N[C@@H]4C(=O)N[C@H](C(C)C)C(=O)N5CCC[C@H]5C(=O)N(C)CC(=O)N(C)[C@@H](C(C)C)C(=O)O[C@@H]4C)c3nc-2c(C(=O)N[C@@H]2C(=O)N[C@H](C(C)C)C(=O)N3CCC[C@H]3C(=O)N(C)CC(=O)N(C)[C@@H](C(C)C)C(=O)O[C@@H]2C)c(N)c1=O` [actinomycin D] (I: T[dV]P[Sar][NMeV] / II: T[dV]P[Sar][NMeV]; ester I:1-I:C, II:1-II:C; linker I:N-II:N via Actinocin(9to1)), for which, in assay [2], the “apoptosis induced in ρ^0 cells compared with ρ^+ cells (early apoptotic cells, annexin V positive/propidium iodide negative)” value is “no significant differences in the fraction of apoptotic cells”; the “proapoptotic effect on ρ^0 or ρ^+ cells” value is “proapoptotic effect on both ρ^0 and ρ^+ cells”. On to `C=C(C)[C@H]1Cc2c(ccc3c2O[C@@H]2COc4cc(OC)c(OC)cc4[C@@H]2C3=O)O1` [Rotenone], for which, in assay [1], the “cell death in the cell population” value is reported as “increase cell death” and the “differentiation” value is recorded as “induce differentiation”.

B1: TFB2M: recombinant human mitochondrial transcription factor B2, homologue of yeast Mtf1, expressed in a baculovirus system (protein)
chain: AGRFCILGSEAATRKHLPARNHCGLSDSSPQLWPEPDFRNPPRKASKASLDFKRYVTDRRLAETLAQIYLGKPSRPPHLLLECNPGPGILTQALLEAGAKVVALESDKTFIPHLESLGKNLDGKLRVIHCDFFKLDPRSGGVIKPPAMSSRGLFKNLGIEAVPWTADIPLKVVGMFPSRGEKRALWKLAYDLYSCTSIYKFGRIEVNMFIGEKEFQKLMADPGNPDLYHVLSVIWQLACEIKVLHMEPWSSFDIYTRKGPLENPKRRELLDQLQQKLYLIQMIPRQNLFTKNLTPMNYNIFFHLLKHCFGRRSATVIDHLRSLTPLDARDILMQIGKQEDEKVVNMHPQDFKTLFETIERSKDCAYKWLYDETLEDR
B1: in assay [4], the “transcriptional activation compared with TFB1M” value was “at least one order of magnitude greater”.

The values above are taken from patent US20040253728A1, “New method” (priority 2000, published 2004).
